Results as given in article PMC11349198, “The activation cascade of the broad-spectrum antiviral bemnifosbuvir characterized at atomic resolution” (PLOS Biology, 2024).

Columns and labels:
[1] = target: T1, ADALP1 (Homo sapiens, UniProt Q6DHV7); assay: X-ray crystal structure, […] Å; assay type: binding; conditions: co-crystallized with AT-8003 (10 mM), pH 5.3 to 6.3; Zn2+; active site
T1 construct: gene MAPDA; N-terminal 6xHis with TEV site, tag cut; E. coli; monomer; Zn; crystals grown with trace alpha-chymotrypsin
T1 sequence (Q6DHV7 1-355): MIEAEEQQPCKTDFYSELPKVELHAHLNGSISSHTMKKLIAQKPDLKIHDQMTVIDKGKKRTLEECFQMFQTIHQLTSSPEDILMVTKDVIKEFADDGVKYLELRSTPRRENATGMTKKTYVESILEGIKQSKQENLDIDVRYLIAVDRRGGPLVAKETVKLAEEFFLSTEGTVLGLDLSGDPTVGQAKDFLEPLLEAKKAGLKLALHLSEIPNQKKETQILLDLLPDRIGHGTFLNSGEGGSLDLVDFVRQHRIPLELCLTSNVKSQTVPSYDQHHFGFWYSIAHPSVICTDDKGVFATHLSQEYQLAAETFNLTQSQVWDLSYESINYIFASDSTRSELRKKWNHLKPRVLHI

[2] = target: T2, HINT1 (Homo sapiens, UniProt P49773); assay: ITC; assay type: binding; conditions: 1-site model
T2 construct: N-terminal 6xHis with TEV site, tag cut; E. coli; homodimer, 126 residues visible
T2 sequence (P49773 whole entry): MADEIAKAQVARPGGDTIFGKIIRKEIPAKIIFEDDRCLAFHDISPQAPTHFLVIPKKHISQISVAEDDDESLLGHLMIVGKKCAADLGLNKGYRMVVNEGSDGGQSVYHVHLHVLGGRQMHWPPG

Structure (SMILES)	X-ray crystal structure, 2.44 Å [1]	Ka [2]
C[C@@]1(F)[C@H](O)[C@@H](COP(=O)(O)O)O[C@H]1n1cnc2c(=O)[nH]c(N)nc21 [AT-8001]	the product AT-8001 was found bound at the active site	–
Nc1ncnc2c1ncn2[C@@H]1O[C@H](COP(=O)(O)O)[C@@H](O)[C@H]1O [AMP]	–	1.7 10^4
